Experimental data: patent publication US20230082968A1, “EXOGENOUS NITRIC OXIDE FOR IMPROVED SUSCEPTIBILITY AND LOWERED ANTIBIOTIC RESISTANCE IN RESISTANT RESPIRATORY BACTERIA” (The University of North Carolina at Chapel Hill, priority 2020, published 2023)
Values after ≈ are worked out from the molar mass of the structure shown.

How the values were obtained:
[1] = test system: ATCC S.aureus; experiment: Nitric oxide pretreatment with planktonic bacteria; assay type: cell-based, Staphylococcus aureus
Procedure: (§1) After exposure, wells were serially diluted in sterile MilliQ water and spiral plated on TSA. Viability was assessed by colony counting.

[2] = test system: AR 237 biofilm; experiment: Biofilm pretreatment with nitric oxide; assay type: cell-based, P. aeruginosa; details: tobramycin 1 µg/mL, NO-pretreatment 4 h
Procedure: (§2) Bacteria were cultured to a concentration of 10^8 CFU/mL in TSB and diluted to 10^6 CFU/mL in 200 µL TSB in a 96 well plate. Plates were incubated with shaking for 3 days until a non-surface attached viscous aggregate formed that was easily separated from growth medium. Biofilms (100 µL) were removed, gently injected into PBS (200 µL) to remove loosely adhered planktonic cells, and added to a sterile 96 well plate. To the wells, PBS or test agent dissolved in PBS (100 µL) was added and incubated with shaking for 24 h. The biofilm (100 µL) was removed from the well plate, added to 900 µL sterile MilliQ water, and disrupted with pipetting and vortexing. Disrupted biofilms were serially diluted and spiral plated on TSA. Viability was assessed with colony counting. The minimum biofilm eradication concentration (MBEC) was defined as the lowest concentration of test agent required to reduce viability by 5-log (i.e., 10^8 to 10^3 CFU/mL).
(§3) The biofilm was then removed from its 96 well plate, added to a new 96 well plate containing tobramycin dissolved in PBS (100 µL), and incubated for 20 h. The biofilm was disrupted in 900 µL sterile MilliQ water with pipetting and vortexing, serially diluted, and spiral plated on TSA. Viability was assessed with colony counting.

[3] = test system: AR 239 biofilm; experiment: Biofilm pretreatment with nitric oxide; assay type: cell-based, P. aeruginosa; details: tobramycin 5000 µg/mL, NO-pretreatment 4 h
Procedure: as §2, §3

[4] = test system: AR 230 biofilm; experiment: Biofilm pretreatment with nitric oxide; assay type: cell-based, P. aeruginosa; details: tobramycin 64 µg/mL, NO-pretreatment 4 h
Procedure: as §2, §3

[5] = test system: AR 229 biofilm; experiment: Biofilm pretreatment with nitric oxide; assay type: cell-based, P. aeruginosa; details: tobramycin 2 µg/mL, NO-pretreatment 4 h
Procedure: as §2, §3

[6] = test system: PAK; experiment: Serial passaging resistance assay; assay type: cell-based, Pseudomonas aeruginosa
Procedure: Bacteria at a final concentration of 10^6 CFU/mL in TSB were incubated with serial dilutions of COS/NO and/or tobramycin for 24 h. Growth was assessed by measuring absorbance at 600 nm. The wells that had the highest concentration of test agent and an OD600 corresponding to more than 10^8 CFU/mL were diluted to 10^6 cfu/mL in TSB and incubated with fresh solutions of COS/NO or tobramycin for 24 h. A single passage was defined as one exposure, incubation, and subsequent dilution. Bacteria were passaged for up to 70 days.

[7] = test system: ATCC MRSA; experiment: Nitric oxide pretreatment with planktonic bacteria; assay type: cell-based, Methicillin-resistant S. aureus
Procedure: as §1

[8] = test system: PA 237; experiment: 24 h combination time kill assay; assay type: cell-based, P. aeruginosa; details: PA 237, COS/NO and tobramycin, 24 h time kill
Procedure: (§4) Time-kill assays were performed over 24 h in order to quantitatively probe the effect of each antibiotic-NO combination as a function of time [Belley, A. et al. Assessment by time-kill methodology of the synergistic effects of oritavancin in combination with other antimicrobial agents against Staphylococcus aureus. Antimicrob. Agents Chemother. 52, 3820-3822 (2008)]. […] Aliquots were sampled at 0, 3, 6, and 24 h, serially diluted, and logarithmically plated on TSA plates using an Eddy Jet spiral plater (IUL; Farmingdale, NY). Bacterial viability was assessed by counting the number of colonies formed with a Flash & Go colony counter (IUL; Farmingdale, NY).

[9] = test system: PA 229; experiment: 24 h combination time kill assay; assay type: cell-based, P. aeruginosa; details: PA 229, COS/NO and tobramycin, 24 h time kill
Procedure: as §4

[10] = test system: PA 239; experiment: 24 h combination time kill assay; assay type: cell-based, P. aeruginosa; details: PA 239 (tobramycin-resistant), COS/NO and tobramycin, 24 h time kill
Procedure: as §4

[11] = test system: PA 230; experiment: 24 h combination time kill assay; assay type: cell-based, P. aeruginosa; details: PA 230 (tobramycin-resistant), COS/NO and tobramycin, 24 h time kill
Procedure: as §4

[12] = test system: PAK biofilm; experiment: Biofilm pretreatment with nitric oxide; assay type: cell-based, Pseudomonas aeruginosa
Procedure: as §2, §3

[13] = test system: PAK; experiment: Nitric oxide pretreatment with planktonic bacteria; assay type: cell-based, Pseudomonas aeruginosa; details: antibiotic 2 µg/mL, NO-pretreatment 25% MIC 4 h
Procedure: as §1

[14] = test system: ATCC BCC; experiment: Nitric oxide pretreatment with planktonic bacteria; assay type: cell-based, Burkholderia cepacia complex
Procedure: as §1

[15] = antibiotic 4000 µg/mL, NO-pretreatment 25% MIC 4 h
[16] = tobramycin 16 µg/mL, NO-pretreatment 4 h

NC[C@H]1O[C@H](O[C@H]2[C@H](O)[C@@H](O[C@H]3O[C@H](CO)[C@@H](O)[C@H](N)[C@H]3O)[C@H](N)C[C@@H]2N)[C@H](N)C[C@@H]1O [Tobramycin]
tobramycin-susceptibility with the addition of NO ([1]; ATCC S. aureus, NO-pretreatment): significant improvement
Log Difference in bacteria viability with vs without NO-pretreatment ([1]; ATCC S.aureus, antibiotic […], NO-pretreatment 25% MIC 4 h): 4.88 log
Classification [2]: Synergistic
Log Difference in biofilm viability with vs without NO-pretreatment [2]: 4.85 log
Classification [3]: Synergistic
Log Difference in biofilm viability with vs without NO-pretreatment [3]: 4.90 log
Classification [4]: Synergistic
Log Difference in biofilm viability with vs without NO-pretreatment [4]: 5.15 log
Classification [5]: Synergistic
Log Difference in biofilm viability with vs without NO-pretreatment [5]: 4.39 log
development of tobramycin-resistance ([6]; P. aeruginosa, concomitant delivery with COS/NO at 25% of its MIC): slowing or prevention
change of tobramycin MIC on parallel exposures ([6]; P. aeruginosa, tobramycin alone, serial passages): increases
MICn ([6]; PAK, after n = 10 passages): 16 µg/mL
MIC ([6]; Pseudomonas aeruginosa, read-out: MIC0): 2 µg/mL (≈ 4.28 µM)
tobramycin-susceptibility with the addition of NO ([7]; NO-pretreatment): significant improvement
Classification [7, 15]: Synergistic
Log Difference in bacteria viability with vs without NO-pretreatment [7, 15]: 4.09 log
interaction of tobramycin-NO combination [8]: synergistically
interaction of tobramycin-NO combination [9]: synergistically
interaction of tobramycin-NO combination [10]: indifferent
interaction of tobramycin-NO combination [11]: indifferent
changes in tobramycin-susceptibility of biofilm ([12]; NO-pretreatment lasting less than 4 h): Minimal changes
Classification [12, 16]: Synergistic
Log Difference in biofilm viability with vs without NO-pretreatment [12, 16]: 4.71 log
Classification [13]: Synergistic
Log Difference in bacteria viability with vs without NO-pretreatment [13]: 3.00 log
Log Difference in bacteria viability with vs without NO-pretreatment ([14]; ATCC BCC, antibiotic […], NO-pretreatment 25% MIC 4 h): 5.23 log
tobramycin-susceptibility with the addition of NO ([14]; B. cepacia complex, NO-pretreatment): significant improvement
